# Laboratory results: patent US20220117938A1, “COMBINATON THERAPY WITH A DON PRODRUG AND AN IMMUNE CHECKPOINT INHIBITOR” (DRACEN PHARMACEUTICALS, INC., priority 2019, published 2022)
# Test system: Ninety four (94) cell lines and PBMC
# Test: Cell viability assay, SRB staining, 94 cell lines and PBMC (Example 7, Experiment 2)
# Type: cell-based
# Procedure: Ninety four (94) cell lines were seeded at a density varying from 500 to 7000 cells/well depending on their growth characteristics. PBMC were seeded at the density 50,000-100,000 cells/well. Cells were incubated for 48 h prior to compound treatment. Compound 1 and DON were evaluated at a concertation range of 1 nM up to 100 μM. Compound 1 dilutions in DMSO and DON dilutions in PBS were performed in 96-well 0.5 mL plates (Greiner Bio-One, Germany). Compounds were then diluted 1:100 in RPMI medium. […] of cells were treated by mixing with 10 μL of the compound-containing media (resulting in a final DMSO concentration of 0.1%). The cells were allowed to grow at 37° C. for 120 h. Cells were fixed to the surface by addition of 10% TCA (for adherent growing cells) or 50% TCA (for semi-adherent growing cells or cells growing in suspension). After an hour of incubation at 4° C., plates were washed twice with 400 μL of deionized water and dried. Cells were then stained with 100 μL of 0.04% wt/v SRB. The plates were incubated at room temperature for at least 30 min and washed six times with 1% acetic acid to remove unbound stain. The plates were left to dry at room temperature and bound SRB was solubilized with 100 μL of 10 mM Tris base. Optical density was measured at 492, 520 and 560 nm using a Deelux-LED96 plate reader (Deelux Labortechnik GmbH, Germany).
# Cell lines were purchased directly from the ATCC, NCI, CLS, and DSMZ cell line collections. A master bank and working aliquots were prepared. Cells used for the study had undergone less than 20 passages. To rule out potential contamination or wrong assignment, all cell lines were tested by STR analysis. Absence of mycoplasma contamination was confirmed for all cell lines used in the studies.
# The cell lines were grown in the media recommended by the suppliers in the presence of 100 U/mL penicillin and 100 μg/mL streptomycin supplied with 10% FCS (PAA, Germany). RPMI 1640, DMEM, and MEM Earle's medium were from PAA (Coelbe, Germany), supplements 2 mM L-glutamine, 1 mM Na-pyruvate and 1% NEAA were from PAA (Coelbe, Germany), 2.5% horse serum, hydrocortisone, transferin, beta-estradiol, selenite and 1 U/mL insulin from Sigma-Aldrich (Munich, Germany). RPMI medium was used for culturing the following cell lines: 5637, 22RV1, 7860, A2780, A431, A549, ACHN, ASPC1, BT20, BXPC3, CAKI1, CLS439, COLO205, COLO678, DLD1, DU145, EFO21, EJ28, HCT15, HS578T, IGROV1, JAR, LOVO, MCF7, MDA MB231, MDA MB435, MDA MB436, MDA MB468, MHHES1, MT3, NCI H292, NCI H358M, NCI H460, NCIH82, OVCAR3, OVCAR4, PANC 1005 (addition of insulin), PBMC, PC3, RDES, SF268, SF295, SKBR3, SK MEL28, SKMEL5, SKOV3, SW620, U2OS, UMUC3, and U031.
# DMEM medium was used to culture A204, A375, A673, C33A, CASKI, HCT116, HEPG2, HS729, HT29, J82, MG63, MIAPACA2 (addition of horse serum), PANC1, PLCPRF5, RD, SAOS2, SKLMS1, SKNAS, SNB75, T24, and TE671.
# MEM Earle's medium was used for CACO2, CALU6, HEK293, HELA, HT1080, IMR90, JEG3, JIMT1, SKHEP1, SKNSH, and U87MG. Cell seeding conditions were optimized for each cell line. The cell seeding density varied from 500 to 7000 cells/well depending on their growth characteristics. Peripheral blood mononuclear cells (PBMC) were freshly isolated from whole blood of an anonymous donor through density gradient centrifugation using Ficoll solution (d=1.077). In short, blood was diluted 1:1 with PBS and carefully placed on the Ficoll. After centrifugation 1000×g for 15 min (braking rate 0), the ring containing mainly leucocytes was collected in PBS followed by three times washing with PBS to reduce the platelets. PBMC were seeded at the density 50,000-100,000 cells/well. Cells were grown in 5% CO2 atmosphere in a NB-203XXL incubator (N-BIOTEK Inc., Korea).
# Ninety-four cell lines were tested in parallel. Cell growth and treatment were performed in 96 well microtitre plates CELLSTAR® (Greiner Bio-One, Germany). […]
# [1] = Homo sapiens, MDA-MB-468, MDAMB468, breast
# [2] = Homo sapiens, MG-63, MG63, bone
# [3] = Homo sapiens, MHH-ES-1, MHHES1, bone
# [4] = Homo sapiens, MIA PaCa-2, MIAPACA2, pancreas
# [5] = Homo sapiens, MINO, hematological
# [6] = Homo sapiens, MV4-11, MV4-11, hematological
# [7] = Homo sapiens, NCI-H292, NCIH292, lung
# [8] = Homo sapiens, NCI-H460, NCIH460, lung
# [9] = Homo sapiens, OVCAR-3, OVCAR3, ovary
# [10] = Homo sapiens, OVCAR-4, OVCAR4, ovary
# [11] = Homo sapiens, PANC-1, PANC1, pancreas
# [12] = Homo sapiens, PLC-PRF-5, PLCPRF5, liver
# [13] = Homo sapiens, Panc1005, PANC1005, pancreas
# [14] = Homo sapiens, SAOS-2, SAOS2, bone
# [15] = Homo sapiens, SF-268, SF268, brain
# [16] = Homo sapiens, SF-295, SF295, brain
# [17] = Homo sapiens, SK-BR-3, SKBR3, breast
# [18] = Homo sapiens, SK-HEP1, SKHEP1, liver
# [19] = Homo sapiens, SK-LMS-1, SKLMS1, uterus
# [20] = Homo sapiens, SK-MEL-5, SKMEL5, skin
# [21] = Homo sapiens, SK-MEL-28, SKMEL28, skin
# [22] = Homo sapiens, SK-N-SH, SKNSH, brain
# [23] = Homo sapiens, SK-OV-3, SKOV3, ovary
# [24] = Homo sapiens, SU-DHL-6, SU-DHL-6, hematological
# [25] = Homo sapiens, SW-620, SW620, colon
# [26] = Homo sapiens, TE-671, TE671, muscle
# [27] = Homo sapiens, THP-1, THP-1, hematological
# [28] = Homo sapiens, U-87 MG, U87MG, brain
# [29] = Homo sapiens, UMUC3, UMUC3, bladder
# [30] = Homo sapiens, UO-31, UO31, kidney
# [31] = Homo sapiens, WSU-NHL, hematological
smiles,measurement,setting,value
"[N-]=[N+]=CC(=O)CC[C@H](N)C(=O)O [DON, 6-Diazo-5-oxo-L-norleucine, reference compound]",IC50,"Homo sapiens, MDA-MB-436, MDAMB436, breast",19.8 µM
same,GI50,[1],0.427 µM
same,IC50,[1],0.599 µM
same,GI50,[2],4.61 µM
same,IC50,[2],5.3 µM
same,GI50,[3],1.85 µM
same,IC50,[3],2 µM
same,GI50,[4],3.32 µM
same,IC50,[4],3.58 µM
same,GI50,[5],0.497 µM
same,IC50,[5],0.633 µM
same,GI50,[6],1.22 µM
same,IC50,[6],1.4 µM
same,GI50,[7],5.72 µM
same,IC50,[7],53.1 µM
same,GI50,[8],4.11 µM
same,IC50,[8],4.31 µM
same,GI50,[9],0.889 µM
same,IC50,[9],2.3 µM
same,GI50,[10],0.651 µM
same,IC50,[10],0.752 µM
same,GI50,[11],12.3 µM
same,IC50,[11],13.2 µM
same,GI50,[12],6.53 µM
same,IC50,[12],8.04 µM
same,GI50,[13],4.17 µM
same,IC50,[13],8.6 µM
same,GI50,"Homo sapiens, Ramos, hematological",0.672 µM
same,GI50,[14],6.36 µM
same,IC50,[14],33.2 µM
same,GI50,[15],6.32 µM
same,IC50,[15],7.43 µM
same,GI50,[16],4.71 µM
same,IC50,[16],5.23 µM
same,GI50,[17],2.14 µM
same,IC50,[17],3.21 µM
same,GI50,[18],1.79 µM
same,IC50,[18],2.62 µM
same,GI50,[19],1.66 µM
same,IC50,[19],2.3 µM
same,GI50,[20],2.19 µM
same,IC50,[20],3.02 µM
same,GI50,[21],1.69 µM
same,IC50,[21],2.19 µM
same,GI50,"Homo sapiens, SK-N-AS, SKNAS, brain",12.6 µM
same,GI50,[22],5.04 µM
same,IC50,[22],7.11 µM
same,GI50,[23],0.769 µM
same,IC50,[23],1.21 µM
same,GI50,"Homo sapiens, SNB-75, SNB75, brain",15.5 µM
same,GI50,"Homo sapiens, SU-DHL10, SU-DHL-10, hematological",8.42 µM
same,GI50,[24],0.623 µM
same,IC50,[24],0.761 µM
same,GI50,[25],5.38 µM
same,IC50,[25],6.25 µM
same,GI50,[26],4.63 µM
same,IC50,[26],5.1 µM
same,GI50,[27],1.02 µM
same,IC50,[27],1.09 µM
same,GI50,"Homo sapiens, U2OS, bone",5.91 µM
same,IC50,"Homo sapiens, U2OS, bone",8.4 µM
same,GI50,[28],10.5 µM
same,IC50,[28],11.3 µM
same,GI50,[29],2.23 µM
same,IC50,[29],2.76 µM
same,GI50,[30],0.981 µM
same,IC50,[30],18.6 µM
same,GI50,[31],0.796 µM
same,IC50,[31],0.639 µM
same,IC50,"J82, bladder",28.9 µM
same,IC50,"JAR, placenta",3.04 µM
same,IC50,"MT3, breast",0.791 µM
same,GI50,"NCI-H358M, NCIH358M, lung",1.61 µM
same,IC50,"NCI-H358M, NCIH358M, lung",4.98 µM
same,GI50,"PBMC, 5637, bladder",0.796 µM
same,GI50,"PBMC, CLS439, bladder",6.87 µM
same,GI50,"PBMC, HS729, muscle",7.42 µM
same,GI50,"PBMC, J82, bladder",23.2 µM
same,GI50,"PBMC, JAR, placenta",2.81 µM
same,GI50,"PBMC, MT3, breast",0.638 µM
same,GI50,"PBMC, PC3, prostate",8.37 µM
same,GI50,"PBMC, RD, muscle",6.79 µM
same,GI50,"PBMC, T24, bladder",3.86 µM
same,IC50,"PC3, prostate",11.7 µM
same,IC50,"RD, muscle",9.13 µM
same,GI50,"RD-ES, RDES, bone",1.96 µM
same,IC50,"RD-ES, RDES, bone",3.18 µM
same,IC50,"T24, bladder",4 µM
